# Patent US6376426B1, “Herbicidal 3-(heterocycl-1-yl)-uracils” (BASF Aktiengesellschaft, priority 1999, dated 2002)
# What was measured:
# Assay type in all cases: in vivo
# Setaria viridis [1] = assay: Pre-emergence herbicidal test, SETVI; details: PRE, 21 days after spraying
# Procedure: (§1) To evaluate their herbicidal activity, compounds according to the invention are tested using a representative range of plants:
# (§2) The pre-emergence tests involve spraying a liquid formulation of the compound onto the soil in which the seeds of the plant species mentioned above has recently been sown.
# (§3) The soil used in the tests is a prepared horticultural loam. The formulations used in the tests are prepared from solutions of the test compounds in acetone containing 0.4% by weight of an alkylphenol/ethylene oxide condensate available under the trade mark TRITON X-155. […] In these tests untreated sown soil are used as controls.
# (§4) The herbicidal effects of the test compounds are assessed visually twenty-one days after spraying the foliage and the soil and are recorded on a 0-9 scale. A rating 0 indicates growth as untreated control, a rating 9 indicates death. An increase of 1 unit on the linear scale approximates to a 10% increase in the level of effect.
# Triticum aestivum [2] = assay: Post-emergence herbicidal test, TRZAW; design: key to herbicidal effect (0-9 scale) TRZAW: A rating 0 indicates growth as untreated control; a rating 9 indicates death; details: POST, 21 days after spraying
# Procedure: as §1
# (§5) […] After spraying, the plants are placed on greenhouse benches and are cared for in the usual manner, commensurate with conventional greenhouse practices.
# as §4
# Stellaria media [3] = assay: Pre-emergence herbicidal test, STEME; design: key to herbicidal effect (0-9 scale) STEME / herbicidal rating STEME: A rating 0 indicates growth as untreated control; a rating 9 indicates death; details: PRE, 21 days after spraying
# Procedure: as §1, §2, §3, §4
# Ipomoea hederacea [4] = assay: Post-emergence herbicidal test, IPOHE; design: key to herbicidal effect (0-9 scale) IPOHE / herbicidal rating IPOHE: A rating 0 indicates growth as untreated control; a rating 9 indicates death; details: POST, 21 days after spraying
# Procedure: as §1, §5, §4
# Alopecurus myosuroides [5] = assay: Pre-emergence herbicidal test, ALOMY; details: PRE, 21 days after spraying
# Procedure: as §1, §2, §3, §4
# Galium aparine [6] = assay: Post-emergence herbicidal test, GALAP; details: POST, 21 days after spraying
# Procedure: as §1, §5, §4
# Abutilon theophrasti [7] = assay: Pre-emergence herbicidal test, ABUTH; design: key to herbicidal effect (0-9 scale) ABUTH / herbicidal rating ABUTH: A rating 0 indicates growth as untreated control; a rating 9 indicates death; details: PRE, 21 days after spraying
# Procedure: as §1, §2, §3, §4
# Abutilon theophrasti [8] = assay: Post-emergence herbicidal test, ABUTH; design: key to herbicidal effect (0-9 scale) ABUTH / herbicidal rating ABUTH: A rating 0 indicates growth as untreated control; a rating 9 indicates death; details: POST, 21 days after spraying
# Procedure: as §1, §5, §4
# Setaria viridis [9] = assay: Post-emergence herbicidal test, SETVI; details: POST, 21 days after spraying
# Procedure: as §1, §5, §4
# Zea mays [10] = assay: Post-emergence herbicidal test, ZEAMX; details: 21 days after spraying
# Procedure: as §1, §5, §4
# Glycine max [11] = assay: Post-emergence herbicidal test, GLXMA; details: 21 days after spraying
# Procedure: as §1, §5, §4
# Stellaria media [12] = assay: Post-emergence herbicidal test, STEME; design: key to herbicidal effect (0-9 scale) STEME / herbicidal rating STEME: A rating 0 indicates growth as untreated control; a rating 9 indicates death; details: POST, 21 days after spraying
# Procedure: as §1, §5, §4
# Glycine max [13] = assay: Pre-emergence herbicidal test, GLXMA; design: key to herbicidal effect (0-9 scale) GLXMA / herbicidal rating GLXMA: A rating 0 indicates growth as untreated control; a rating 9 indicates death; details: PRE, 21 days after spraying
# Procedure: as §1, §2, §3, §4
# Galium aparine [14] = assay: Pre-emergence herbicidal test, GALAP; details: PRE, 21 days after spraying
# Procedure: as §1, §2, §3, §4
# Triticum aestivum [15] = assay: Pre-emergence herbicidal test, TRZAW; details: 21 days after spraying
# Procedure: as §1, §2, §3, §4
# Alopecurus myosuroides [16] = assay: Post-emergence herbicidal test, ALOMY; details: 21 days after spraying
# Procedure: as §1, §5, §4
# Echinochloa crus-galli [17] = assay: Post-emergence herbicidal test, ECHCG; details: 21 days after spraying
# Procedure: as §1, §5, §4
# Echinochloa crus-galli [18] = assay: Pre-emergence herbicidal test, ECHCG; details: 21 days after spraying
# Procedure: as §1, §2, §3, §4
# Hordeum vulgare [19] = assay: Post-emergence herbicidal test, HORVW; details: 21 days after spraying
# Procedure: as §1
# These acetone solutions are diluted with water and the resulting formulations applied at dosage levels equivalent to about 1000, 800, 400, 250 or 100 g/ha per hectare of test compound per pot. After spraying, the plants are placed on greenhouse benches and are cared for in the usual manner, commensurate with conventional greenhouse practices.
# as §4
# Ipomoea hederacea [20] = assay: Pre-emergence herbicidal test, IPOHE; details: 21 days after spraying
# Procedure: as §1, §2, §3, §4
# Zea mays [21] = assay: Pre-emergence herbicidal test, ZEAMX; details: PRE, 21 days after spraying
# Procedure: as §1, §2, §3, §4
# Hordeum vulgare [22] = assay: Pre-emergence herbicidal test, HORVW; details: 21 days after spraying
# Procedure: as §1, §2, §3, §4
# Matricaria inodora [23] = assay: Pre-emergence herbicidal test, MATIN; details: PRE, 21 days after spraying
# Procedure: as §1, §2, §3, §4
# Matricaria inodora [24] = assay: Post-emergence herbicidal test, MATIN; details: POST, 21 days after spraying
# Procedure: as §1, §5, §4
smiles,measurement,setting,value
Cn1c(C(F)(F)F)cc(=O)n(-n2ccc3ccc([N+](=O)[O-])cc32)c1=O [Example 5],herbicidal effect (0-9 scale) SETVI,Setaria viridis [1]; 250 g/ha,8
same,herbicidal effect (0-9 scale) SETVI,Setaria viridis [1]; 1000 g/ha,8
same,herbicidal effect (0-9 scale) TRZAW,Triticum aestivum [2]; 250 g/ha,0
same,herbicidal effect (0-9 scale) TRZAW,Triticum aestivum [2]; 1000 g/ha,2
same,herbicidal effect (0-9 scale) STEME,Stellaria media [3]; 250 g/ha,0
same,herbicidal effect (0-9 scale) STEME,Stellaria media [3]; 1000 g/ha,2
same,herbicidal effect (0-9 scale) IPOHE,Ipomoea hederacea [4]; 250 g/ha,6
same,herbicidal effect (0-9 scale) IPOHE,Ipomoea hederacea [4]; 1000 g/ha,9
same,herbicidal effect (0-9 scale) ALOMY,Alopecurus myosuroides [5]; 250 g/ha,3
same,herbicidal effect (0-9 scale) ALOMY,Alopecurus myosuroides [5]; 1000 g/ha,6
same,herbicidal effect (0-9 scale) GALAP,Galium aparine [6]; 250 g/ha,4
same,herbicidal effect (0-9 scale) GALAP,Galium aparine [6]; 1000 g/ha,6
same,herbicidal effect (0-9 scale) ABUTH,Abutilon theophrasti [7]; 250 g/ha,5
same,herbicidal effect (0-9 scale) ABUTH,Abutilon theophrasti [7]; 1000 g/ha,9
same,herbicidal effect (0-9 scale) ABUTH,Abutilon theophrasti [8]; 250 g/ha,8
same,herbicidal effect (0-9 scale) ABUTH,Abutilon theophrasti [8]; 1000 g/ha,9
same,herbicidal effect (0-9 scale) SETVI,Setaria viridis [9]; 250 g/ha,7
same,herbicidal effect (0-9 scale) SETVI,Setaria viridis [9]; 1000 g/ha,8
same,herbicidal effect (0-9 scale) ZEAMX,Zea mays [10]; 250 g/ha,2
same,herbicidal effect (0-9 scale) ZEAMX,Zea mays [10]; 1000 g/ha,5
same,herbicidal effect (0-9 scale) GLXMA,Glycine max [11]; 250 g/ha,6
same,herbicidal effect (0-9 scale) GLXMA,Glycine max [11]; 1000 g/ha,8
same,herbicidal effect (0-9 scale) STEME,Stellaria media [12]; 250 g/ha,0
same,herbicidal effect (0-9 scale) STEME,Stellaria media [12]; 1000 g/ha,5
same,herbicidal effect (0-9 scale) GLXMA,Glycine max [13]; 250 g/ha,0
same,herbicidal effect (0-9 scale) GLXMA,Glycine max [13]; 1000 g/ha,0
same,herbicidal effect (0-9 scale) GALAP,Galium aparine [14]; 250 g/ha,5
same,herbicidal effect (0-9 scale) GALAP,Galium aparine [14]; 1000 g/ha,8
same,herbicidal effect (0-9 scale) TRZAW,Triticum aestivum [15]; 250 g/ha,2
same,herbicidal effect (0-9 scale) TRZAW,Triticum aestivum [15]; 1000 g/ha,5
same,herbicidal effect (0-9 scale) ALOMY,Alopecurus myosuroides [16]; 250 g/ha,1
same,herbicidal effect (0-9 scale) ALOMY,Alopecurus myosuroides [16]; 1000 g/ha,4
same,herbicidal effect (0-9 scale) ECHCG,Echinochloa crus-galli [17]; 250 g/ha,5
same,herbicidal effect (0-9 scale) ECHCG,Echinochloa crus-galli [17]; 1000 g/ha,8
same,herbicidal effect (0-9 scale) ECHCG,Echinochloa crus-galli [18]; 250 g/ha,7
same,herbicidal effect (0-9 scale) ECHCG,Echinochloa crus-galli [18]; 1000 g/ha,8
same,herbicidal effect (0-9 scale) HORVW,Hordeum vulgare [19]; 250 g/ha,2
same,herbicidal effect (0-9 scale) HORVW,Hordeum vulgare [19]; 1000 g/ha,4
same,herbicidal effect (0-9 scale) IPOHE,Ipomoea hederacea [20]; 250 g/ha,5
same,herbicidal effect (0-9 scale) IPOHE,Ipomoea hederacea [20]; 1000 g/ha,5
same,herbicidal effect (0-9 scale) ZEAMX,Zea mays [21]; 250 g/ha,4
same,herbicidal effect (0-9 scale) ZEAMX,Zea mays [21]; 1000 g/ha,5
same,herbicidal effect (0-9 scale) HORVW,Hordeum vulgare [22]; 250 g/ha,4
same,herbicidal effect (0-9 scale) HORVW,Hordeum vulgare [22]; 1000 g/ha,6
same,herbicidal effect (0-9 scale) MATIN,Matricaria inodora [23]; 250 g/ha,7
same,herbicidal effect (0-9 scale) MATIN,Matricaria inodora [23]; 1000 g/ha,8
same,herbicidal effect (0-9 scale) MATIN,Matricaria inodora [24]; 250 g/ha,4
same,herbicidal effect (0-9 scale) MATIN,Matricaria inodora [24]; 1000 g/ha,7
